The subject of assay [1] is onco-developmentally regulated α-N-acetylgalactosaminyltransferase. As to the kind of experiment: Solubilization of the enzyme with detergents. Format: biochemical, human. From the text: The particulate membrane fraction can be prepared according to the method of Holmes, E. H. et al. ((1985) J. Biol. Chem. 260, 7619-7627).
Assay [2] deals with onco-developmentally regulated α-N-acetylgalactosaminyltransferase (HUH-7 homogenate). Particulars: 1 mM EDTA, 25 mM Tris buffer, pH 7.6.
Method: In the present case, the requirement for metal ion for the onco-developmentally regulated α-N-acetylgalactosaminyltransferase was determined in 25 mM Tris buffer, pH 7.6, supplemented with 20 mM MnCl2, 10 mM MgCl2, 1 mM CaCl2 and combinations of two of these or 1 mM EDTA.
Hepatoma cell (HUH-7) homogenates and the synthetic and natural peptides set forth in the Table in Example 1 were prepared as in Example 1 and incubated as described in Example 1 using 25 mM Tris buffer, pH 7.6; supplemented with 20 mM MnCl2, 10 mM MgCl2, 1 mM CaCl2 and combinations of two of these or 1 mM EDTA.
Assay [3] deals with onco-developmentally regulated α-N-acetylgalactosaminyltransferase (hepatoma cell homogenate). The assay can be described thus: Effect of UDP-GalNAc concentration (Hanes-Woolf plot of saturation data). Format: biochemical, human. Particulars: UDP-GalNAc 0.6 μM to 200 μM, 200 nmol TPI, read-out: apparent Km for UDP-GalNAc. As to the method:
B. Effect of UDP-GalNAc concentration. A Hanes-Woolf plot of saturation data was obtained by varying UDP-GalNAc concentration from 0.6 μM to 200 μM. The reaction was conducted as described in Example 2 in the presence of 100 mg protein and 200 nmol TPI. The specific activity of UDP[^3 H]-GalNAc utilized was 4×10^6 cpm/nmol.
The apparent Km for UDP-GalNAc can be determined by generating a Hanes-Woolf plot of saturation data obtained by varying the UDP-GalNAc concentration at a constant cellular or tissue protein concentration and a constant substrate concentration. A preferred substrate for this assay is TPI.
A Hanes-Woolf plot of saturation data was obtained by varying UDP-GalNAc concentration from 0.6 μM to 200 μM. The reaction as conducted as described in Example 1 in the presence of 100 mg protein of hepatoma cell homogenate and 200 nmol TPI. The specific activity of the UDP[^3 H]-GalNAc used was 4×10^6 cpm/nmol. The reacted samples were also treated as described in Example 1.

Assay [4] deals with α-N-acetylgalactosaminyltransferase in crude homogenates of human hepatoma cells (HUH-7). The assay can be described thus: Specific activity of α-N-acetylgalactosaminyltransferase toward various acceptors. Type of assay: biochemical. The note with it: 200 nmol acceptor, HUH-7 homogenate, 25 mM Tris, 10 mM MgCl2, 1 mM CaCl2, pH 7.6, 2 hrs at 37° C., FDC-6 immunoaffinity. Here is the method: 8×10^7 hepatoma cells (HUH-7) cultured in serum-free medium (Dulbecco-Modified Eagles Medium) were homogenized in a Potter-Elvehjem homogenizer with 200 μl of distilled water. 300 μl of tris buffer solution, consisting of 25 mM tris, 10 mM MgCl2 and 1 mM CaCl2, pH 7.6, was added. 0.3 nmol UDP[^3 H]-GalNAc (specific activity 8.7 Ci/mmol, New England Nuclear Research Product) and 25 nmol UDP-GalNAc were added and incubated for 2 hrs at 37° C. The incubation mixture was centrifuged at 10,000 rpm for 30 min. Supernatant was applied onto a 0.5 ml Sepharose 4B precolumn, followed by a 0.5 ml FDC-6 immunoaffinity column containing 10 mg of purified FDC-6 antibody/ml as described by Matsuura, H. et al. ((1988) J. Biol. Chem. 263, 3314-3322). Immunoprecipitation using 200 μl of FDC-6 binding Sepharose 4B was also performed as described by Bigler R. D. et al ((1988) J. Immunol. 144 21). Supernatants were incubated for 1 hr at 20° C. The column or immunoprecipitate was washed with 1M NaCl in 50 mM Tris buffer, pH 7.4, and eluted with 2.5M potassium thiocyanate in the same buffer solution. The eluate and washings were pooled and aliquots were counted. The same incubation mixture without addition of synthetic peptides or FN was used as a control.

In assay [5] the test system is onco-developmentally regulated α-N-acetylgalactosaminyltransferase (HUH-7 homogenate). The assay can be described thus: Variation of incubation time (kinetics of α-GalNAc transfer to synthetic peptide). Format: biochemical, human. The note with it: 200 nmol TPI, Tris pH 7.6, 37°, incubated 10 min. to 24 hours. As to the method:
C. Variation of incubation time. The standard reaction mixture described in Example 1 using TPI was incubated for 10 min to 24 hr. open circles, with TPI; closed circles, without TPI (control).
In order to determine the kinetics of α-GalNAc transfer to synthetic peptide, a reaction mixture containing 12.5 μmol Tris, pH 7.6, 200 nmol TPI, 0.3 nmol UDP[^3 H]-GalNAc, 25 nmol UDP-GalNAc, 5 μmol MgCl2, 0.5 μmol CaCl2 and homogenized hepatoma cells (HUH-7) was incubated for 10 min. to 24 hours at 37°. A parallel control was run without TPI. At the end of the incubation periods, the samples were treated as described in Example 1.

Ends that are not written are not given here.

As usually defined, the Km is the substrate concentration at which the rate is half of its maximum.

Take `C[C@H](CCC(=O)NCCC[N+](C)(C)CC(O)CS(=O)(=O)[O-])[C@H]1CC[C@H]2[C@@H]3[C@H](O)C[C@@H]4C[C@H](O)CC[C@]4(C)[C@H]3C[C@H](O)[C@]12C` (some centres unmarked) [CHAPSO, 3-(3-cholamidopropyldimethylammonio)-1-(20-hydroxy-1-propanesulfonate)]: the “Effect of solubilization with detergent on enzyme activity” value in assay [1] was “does not enhance enzyme activity”.
Consider `O=C(O)CN(CCN(CC(=O)O)CC(=O)O)CC(=O)O` [EDTA], for which, in assay [2], the “Enzyme activity in the presence of EDTA” value is given as “totally abolished”.
For the compound `CC(=O)NC1C(OP(=O)(O)OP(=O)(O)OCC2OC(n3ccc(=O)[nH]c3=O)C(O)C2O)OC(CO)C(O)C1O` (centres unmarked) [UDP-GalNAc], the Km in assay [3] is around 48 µM.
On to Triton X-100, for which, in assay [1], the “Effect of solubilization with detergent on enzyme activity” value is listed as “does not enhance enzyme activity”.
With VTHPGY [VTY, val-thr-his-pro-gly-tyr], in assay [4], the “Activity (specific activity of the enzyme to the acceptor)” value is 0.03 pmol/hr/mg protein.
Take “thr-pro-phe-val-thr-his-pro-gly-tyr-asp-thr-gly-asn-gly-ile (TPFVTHPGYDTGNGI) [TPI]”: the “Activity (specific activity of the enzyme to the acceptor)” value in assay [4] was 0.11 pmol/hr/mg protein. For the same compound, the “Time over which α-GalNAc transfer to synthetic peptide is linear” value in assay [5] is on record as “about 2 hours”.
Turning to “thr-pro-phe-val-thr-his-pro-gly-tyr-asp-thr-gly-asn-gly-ile-gln-leu-pro-gly-thr-ser-gly-gln-gln-pro-ser-val-gly-gln-gln (TPFVTHPGYDTGNGIQLPGTSGQQPSVGQQ) [TPQ]”, the “Activity (specific activity of the enzyme to the acceptor)” value in assay [4] was 0.06 pmol/hr/mg protein.

The values are drawn from patent US5177015A, “Onco-developmentally regulated α-N-acetylgalactosaminyltransferase” (Fred Hutchinson Cancer Research Centre, priority 1992, dated 1993).
